According to PMC4521925, “17β-Hydroxysteroid Dehydrogenase Type 2 Inhibition: Discovery of Selective and Metabolically Stable Compounds Inhibiting Both the Human Enzyme and Its Murine Ortholog” (PLoS ONE, 2015):

Tests used:
[1] = Metabolic stability in a cell-free assay (liver S9 fraction); assay type: in vitro ADME; conditions: pooled liver S9 fraction; human liver S9 fraction 1 mg/ml, NADPH regenerating system, UDPGA, PAPS, 37°C; inhibitor 1 μM; read-out: Inhibitor t1/2
Procedure: Compounds 7a, 8a, 16a, 19a, 22a, 27a and 27 were tested according to established method[33–35]For evaluation of phase I and II metabolic stability 1 μM compound was incubated with 1 mg/ml pooled mammalian liver S9 fraction (BD Gentest), 2 mM NADPH regenerating system, 1 mM UDPGA and 0.1 mM PAPS at 37°C for 0, 5, 15 and 60 minutes at a final volume of 100 μL. The incubation was stopped by precipitation of S9 enzymes with 2 volumes of cold acetonitrile containing internal standard. Concentration of the remaining test compound at the different time points was analyzed by LC-MS/MS and used to determine half-life (t1/2).

h17β-HSD2 = biological target: T1, h17β-HSD2 (Homo sapiens, UniProt P37059); experiment: Inhibition of h17β-HSD2 in cell-free assay; assay type: biochemical; design: from tissue; host or cells: human placenta, microsomal fraction; conditions: for s.f. (selectivity factor) = IC50(17β-HSD1)/IC50(17β-HSD2): human enzymes, cell-free; for inhibition at 1 µM: read-out: % inh. at 1 μM h17β-HSD2
T1 sequence (P37059 1-387): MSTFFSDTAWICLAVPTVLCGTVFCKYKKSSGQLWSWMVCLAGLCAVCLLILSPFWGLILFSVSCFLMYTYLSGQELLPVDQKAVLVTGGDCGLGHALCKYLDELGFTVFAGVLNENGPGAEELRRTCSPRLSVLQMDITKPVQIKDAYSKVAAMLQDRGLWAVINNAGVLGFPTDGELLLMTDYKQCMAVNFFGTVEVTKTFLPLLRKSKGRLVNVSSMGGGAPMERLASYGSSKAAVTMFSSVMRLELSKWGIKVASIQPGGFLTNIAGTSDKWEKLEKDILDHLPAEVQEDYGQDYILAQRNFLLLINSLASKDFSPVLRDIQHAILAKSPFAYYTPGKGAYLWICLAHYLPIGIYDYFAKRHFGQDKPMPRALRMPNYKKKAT
Procedure: (§1) h17β-HSD2, h17β-HSD1, m17β-HSD2 and m17β-HSD1 cell-free assays were performed similarly, by incubating enzyme, tritiated substrate, cofactor and inhibitor, according to described procedures.
(§2) Cytosolic (h17β-HSD1) and microsomal (h17β-HSD2) fractions were obtained from human placenta according to previously described procedures. Fresh tissue was homogenized and the enzymes were separated from the mitochondria, cell membrane. Nucleus and other rests by fractional centrifugation at 1000 g, 10.000 g and 150.000 g. The pellet fraction containing the microsomal h17β-HSD2 was used for the determination of h17β-HSD2 inhibition, while h17β-HSD1 was obtained after precipitation with ammonium sulfate from the cytosolic fraction for use of testing of h17β-HSD1 inhibition. Aliquots containing h17β-HSD1 or h17β-HSD2 were stored frozen.
(§3) Inhibitory activities were evaluated following an established method with minor modifications. Briefly, the enzyme preparation was incubated with NAD^+ [1500 μM] in the presence of potential inhibitors at 37C in a phosphate buffer (50 mM) supplemented with 20% of glycerol and EDTA 1mM. Inhibitor stock solutions were prepared in DMSO. Final concentration of DMSO was adjusted to 1% in all samples. […] After 20 min, the incubation was stopped with HgCl2 and the mixture was extracted with ether. After evaporation, the steroids were dissolved in acetonitrile/water (45:55). […] Detection and quantification of the steroids were performed using a radioflow detector (Berthold Technologies, Bad Wildbad). […] Each value was calculated from at least two independent experiments.

m17β-HSD2 = biological target: T2, m17β-HSD2 (Mus musculus, UniProt P51658); experiment: Inhibition of m17β-HSD2 in cell-free assay; assay type: biochemical; conditions: for inhibition at 1 µM: read-out: % inh. at 1 μM m17β-HSD2
T2 construct: The microsomal fraction (m17β-HSD2) was obtained from mouse liver as described for h17β-HSD2; tissue Pharmacelsus GmbH (mouse livers); host or cells: mouse liver, microsomal fraction
T2 sequence (P51658 1-381): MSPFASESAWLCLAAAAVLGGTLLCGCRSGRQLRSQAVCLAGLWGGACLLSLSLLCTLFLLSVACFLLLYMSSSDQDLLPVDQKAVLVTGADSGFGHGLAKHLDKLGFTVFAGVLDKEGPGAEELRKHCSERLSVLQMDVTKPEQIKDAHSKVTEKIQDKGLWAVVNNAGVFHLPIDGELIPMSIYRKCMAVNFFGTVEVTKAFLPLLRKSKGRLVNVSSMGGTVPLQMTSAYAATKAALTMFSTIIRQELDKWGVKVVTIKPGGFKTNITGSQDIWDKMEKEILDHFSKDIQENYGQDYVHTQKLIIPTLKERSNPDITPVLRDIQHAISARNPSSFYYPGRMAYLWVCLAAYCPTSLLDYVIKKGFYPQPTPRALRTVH
Procedure: as §1
The microsomal fraction (m17β-HSD2) was obtained from mouse liver as described for h17β-HSD2. Inhibitory activities were evaluated by a method identical to the one described for the human enzyme.
as §3

h17β-HSD1 = biological target: T3, h17β-HSD1 (Homo sapiens, UniProt P14061); experiment: Inhibition of h17β-HSD1 in cell-free assay; assay type: biochemical; conditions: human placental cytosolic fraction, substrate E1 [500 nM], cofactor NADH [500 μM]; for inhibition at 1 µM: read-out: % inh. at 1 μM h17β-HSD1
T3 construct: h17β-HSD1 was obtained after precipitation with ammonium sulfate from the cytosolic fraction; from tissue; host or cells: human placenta, cytosolic fraction
T3 sequence (P14061 1-328): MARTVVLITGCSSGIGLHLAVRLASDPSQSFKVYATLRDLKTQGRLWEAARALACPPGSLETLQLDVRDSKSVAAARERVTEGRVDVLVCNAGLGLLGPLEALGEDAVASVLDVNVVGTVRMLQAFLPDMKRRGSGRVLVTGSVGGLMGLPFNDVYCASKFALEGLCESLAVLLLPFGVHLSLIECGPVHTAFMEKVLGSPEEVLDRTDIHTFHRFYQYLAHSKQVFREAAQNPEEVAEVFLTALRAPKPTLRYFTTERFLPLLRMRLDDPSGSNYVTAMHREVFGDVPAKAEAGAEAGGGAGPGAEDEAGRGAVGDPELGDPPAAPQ
Procedure: as §1, §2
(§4) The 17β-HSD1 inhibition assay was performed similarly to the h17β-HSD2 test. The human cytosolic enzyme was incubated with NADH [500 μM] while the mouse recombinant enzyme was reacted with NADPH [500 μM].Test compound and a mixture of unlabelled- and [^3H]-E1 (final concentration: 500 nM, 0.15 μCi) were added and mixed for 10 min at 37°C. Further treatment of the samples and HPLC separation was carried out as mentioned above for h17β-HSD2.

m17β-HSD1 = biological target: T4, m17β-HSD1 (Mus musculus, UniProt P51656); experiment: Inhibition of m17β-HSD1 in cell-free assay; assay type: biochemical; conditions: recombinant m17β-HSD1, substrate E1 [500 nM], NADPH [500 μM]
T4 construct: host or cells: HEK 293 cells, transient transfection, 1000 g supernatant of the lysate
T4 sequence (P51656 1-344): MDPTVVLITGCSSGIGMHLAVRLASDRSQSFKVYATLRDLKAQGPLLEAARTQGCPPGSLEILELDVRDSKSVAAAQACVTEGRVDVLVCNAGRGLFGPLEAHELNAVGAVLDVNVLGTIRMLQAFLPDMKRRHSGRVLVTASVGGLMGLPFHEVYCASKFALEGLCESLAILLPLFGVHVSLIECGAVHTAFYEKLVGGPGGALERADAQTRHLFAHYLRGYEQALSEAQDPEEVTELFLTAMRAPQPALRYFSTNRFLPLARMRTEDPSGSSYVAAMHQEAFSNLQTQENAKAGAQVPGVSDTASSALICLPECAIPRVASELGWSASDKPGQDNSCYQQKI
Procedure: as §1
Recombinant m17β-HSD1 enzyme was produced by transfection of HEK 293 cells with a m17β-HSD1 expression plasmid (coding sequence of NM_010475 in pCMV6Entry vector, OriGene Technologies, Inc.) according to a described procedure. 48 hours after transfection cells were homogenized by sonication (3 x 10 s) in a buffer containing saccharose (40 mMTris, 250 mM saccharose, 5 mM EDTA, 7 mM DTT, 1 mM PMSF, pH 7,5). Cell lysate was centrifuged (1000 g, 15 min, 4°C) and 20% glycerol was added to the supernatant before aliquots were frozen and stored at -70°C.
as §4

ERα = biological target: T5, ERα (Homo sapiens, UniProt P03372); experiment: Estrogen receptor affinity in a cell-free assay (ERα); assay type: binding; conditions: 1000-fold excess relative to E2; recombinant human ERα
T5 sequence (P03372 1-595): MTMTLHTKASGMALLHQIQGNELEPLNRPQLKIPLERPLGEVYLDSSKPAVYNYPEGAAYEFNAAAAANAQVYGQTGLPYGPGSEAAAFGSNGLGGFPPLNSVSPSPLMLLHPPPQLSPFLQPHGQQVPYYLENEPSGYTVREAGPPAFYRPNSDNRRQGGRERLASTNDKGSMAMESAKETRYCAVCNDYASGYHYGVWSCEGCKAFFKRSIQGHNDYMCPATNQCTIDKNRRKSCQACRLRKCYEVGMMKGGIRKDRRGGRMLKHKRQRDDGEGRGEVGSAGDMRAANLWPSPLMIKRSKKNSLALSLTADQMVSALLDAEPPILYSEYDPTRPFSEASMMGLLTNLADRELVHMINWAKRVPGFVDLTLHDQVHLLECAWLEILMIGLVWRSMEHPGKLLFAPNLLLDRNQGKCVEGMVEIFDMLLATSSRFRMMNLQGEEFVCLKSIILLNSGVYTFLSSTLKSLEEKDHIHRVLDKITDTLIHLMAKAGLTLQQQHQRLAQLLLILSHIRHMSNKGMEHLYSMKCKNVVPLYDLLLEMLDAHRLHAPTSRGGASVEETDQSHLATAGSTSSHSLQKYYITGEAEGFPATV
Procedure: (§5) The binding affinity of selected compounds to ERα and ERβ was determined according to the recommendations of the US Environmental Protection Agency (EPA) by their Endocrine Disruptor Screening Program (EDSP)[24] using recombinant human proteins.
(§6) The potential inhibitors were dissolved in DMSO (5% final concentration). […] After incubation, ligand-receptor complexes were selectively bound to hydroxyapatite (83.5 g/LinTE-buffer). The bound complex was washed three times and resuspended in ethanol. For radiodetection, scintillator cocktail (Quickszint 212, Zinsser Analytic, Frankfurt) was added and samples were measured in a liquid scintillation counter (1450 LSC & Luminescence Counter, Perkin Elmer).
(§7) After the assay was established and validated, a modification was made to increase throughput.

ERβ = ERβ (Homo sapiens, UniProt Q92731); experiment: Estrogen receptor affinity in a cell-free assay (ERβ); assay type: binding; conditions: 1000-fold excess relative to E2; recombinant human ERβ
Sequence of ERβ (Q92731 whole entry): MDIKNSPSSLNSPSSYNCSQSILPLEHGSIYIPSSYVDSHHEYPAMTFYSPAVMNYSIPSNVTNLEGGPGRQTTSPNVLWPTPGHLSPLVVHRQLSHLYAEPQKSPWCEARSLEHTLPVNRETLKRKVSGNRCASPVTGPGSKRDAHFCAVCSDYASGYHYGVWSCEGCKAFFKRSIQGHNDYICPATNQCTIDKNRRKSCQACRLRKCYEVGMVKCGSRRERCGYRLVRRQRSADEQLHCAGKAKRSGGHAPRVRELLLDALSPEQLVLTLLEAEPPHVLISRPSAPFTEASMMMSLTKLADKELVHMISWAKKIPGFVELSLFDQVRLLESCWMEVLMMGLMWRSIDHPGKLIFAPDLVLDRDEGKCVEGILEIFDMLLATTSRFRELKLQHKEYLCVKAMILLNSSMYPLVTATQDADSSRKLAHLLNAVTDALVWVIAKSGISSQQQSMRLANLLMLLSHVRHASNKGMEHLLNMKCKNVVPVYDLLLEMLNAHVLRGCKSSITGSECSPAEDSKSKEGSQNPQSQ
Procedure: as §5, §6, §7

SMILES | half-life at 1 μM [1] [h] | IC50 (h17β-HSD2) [nM] | s.f. (selectivity factor) = IC50(17β-HSD1)/IC50(17β-HSD2) (h17β-HSD2) | inhibition at 1 µM (m17β-HSD2) [%] | IC50 (h17β-HSD1) [nM] | inhibition of m17β-HSD1 at 1 μM (m17β-HSD1) | melting point [°C] | inhibition at 1 µM (h17β-HSD2) [%] | inhibition at 1 µM (h17β-HSD1) [%] | displacement of E2 from ERα (ERα) [%] | displacement of E2 from ERβ (ERβ) [%] | IC50 (m17β-HSD2) [nM]
COc1cccc(N(C)C(=O)c2ccc(-c3cccc(Cl)c3)cc2)c1 [Compound 14a, 3'-Chloro-N-(3-methoxyphenyl)-N-methyl-[1,1'-biphenyl]-4-carboxamide] | 1.37 | 950 | 13 | 73 | 12600 | None of the tested compounds showed any inhibition | – | – | – | – | – | –
COc1ccc(-c2ccc(C(=O)N(C)c3cccc(OC)c3)cc2)cc1 [Compound 10a, 4'-Methoxy-N-(3-methoxyphenyl)-N-methyl-[1,1'-biphenyl]-4-carboxamide] | – | 710 | 38 | 66 | 27000 | None of the tested compounds showed any inhibition | 128 to 130 | – | – | – | – | –
COc1cccc(N(C)C(=O)c2ccc(-c3cccc(OC)c3F)cc2)c1 [Compound 19a, 2'-Fluoro-3'-methoxy-N-(3-methoxyphenyl)-N-methyl-[1,1'-biphenyl]-4-carboxamide] | – | – | – | 67 | – | None of the tested compounds showed any inhibition | 125 to 127 | 64 | 35 | – | – | –
COc1cccc(N(C)C(=O)c2ccc(-c3cccc(C)c3F)cc2)c1 [Compound 20a, 2'-Fluoro-N-(3-methoxyphenyl)-N,3'-dimethyl-[1,1'-biphenyl]-4-carboxamide] | 1.73 | 460 | 24 | 48 | 11300 | – | 91 to 94 | – | – | – | – | –
COc1cccc(-c2ccc(C(=O)N(C)c3cccc(C)c3)cc2)c1 [Compound 5a, 3'-Methoxy-N-methyl-N-(m-tolyl)-[1,1'-biphenyl]-4-carboxamide] | 1.93 | – | – | 56 | – | – | – | 44 | < 10 | – | – | –
Cc1cccc(N(C)C(=O)c2ccc(-c3ccc4c(c3)OCO4)cc2)c1 [Compound 23a, 4-(Benzo[d][1, 3]dioxol-5-yl)-N-methyl-N-(m-tolyl)benzamide] | – | 560 | 20 | 70 | 10900 | None of the tested compounds showed any inhibition | 111 to 113 | – | – | – | – | –
COc1cccc(-c2ccc(C(=O)N(C)c3cccc(OC)c3)cc2)c1 [Compound 7a, 3'-Methoxy-N-(3-methoxyphenyl)-N-methyl-[1,1'-biphenyl]-4-carboxamide] | – | 330 | 20 | – | 6400 | – | 131 to 134 | – | – | ≤ 20 | ≤ 20 | 290
